“Also recorded” adds a separate entry of the source. Structures can show the parent of a compound that is named as a salt. Where two headings read alike, the source gives them in different places. Where a SMILES comes first, the peptide text is derived from it. Where no end group is shown, it is not given here. The star is where a group is joined. Stearoyl = CCCCCCCCCCCCCCCCCC(=O)*
Columns and labels:
H1299 cells = assay: Soft agar colony assay; format: cell-based, human
c-Abl tyrosine kinase = target: T1, c-Abl tyrosine kinase (Abelson murine leukemia virus, UniProt P00521); format: biochemical; conditions: for inhibition of Abl tyrosine kinase: commercial / bacterially purified Abl kinase, GST-Crk substrate
T1 construct: truncated commercial (New England Bio-Labs) cAbl tyrosine kinase (45 kD) containing only the SH2 and SH1 domains; purchased New England Bio-Labs; host or cells: bacteria
T1 sequence (P00521 1-398): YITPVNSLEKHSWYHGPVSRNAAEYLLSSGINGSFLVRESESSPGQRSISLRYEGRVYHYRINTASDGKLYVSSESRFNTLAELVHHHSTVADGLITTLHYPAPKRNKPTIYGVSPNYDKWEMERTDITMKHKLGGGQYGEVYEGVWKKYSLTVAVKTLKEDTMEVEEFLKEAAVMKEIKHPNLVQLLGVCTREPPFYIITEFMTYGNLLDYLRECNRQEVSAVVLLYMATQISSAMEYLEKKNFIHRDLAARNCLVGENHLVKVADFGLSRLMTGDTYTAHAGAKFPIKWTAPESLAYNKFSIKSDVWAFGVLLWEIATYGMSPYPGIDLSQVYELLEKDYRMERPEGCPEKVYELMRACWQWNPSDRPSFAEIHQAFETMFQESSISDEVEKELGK
Description: A zero peptide control, a DMSO control, a DMSO plus stearic acid control, and 20, 25, 30, 35, 40, 45, 50 and 55:M of peptide were evaluated.
After 30 minutes of incubation at 30 degrees, samples were boiled with 2×SDS sample buffer and run on an 8% SDS PAGE gel. The gel was dried and exposed to a phosphoimager.
GST-Crk phosphorylation was quantified by using a phosphoimager.

[1] = test system: Rat-1 cells transformed with an activated c-Abl tyrosine kinase; assay: Foci formation in Rat-1 cells transformed by c-Abl; format: cell-based
Description: Rat-1 SH2 cells express GFP as a marker. A fluorescent photo was taken of green fluorescing Rat-1 SH2 cells treated with peptide. A phase contrast photo of the field was produced. […] (Rat-1 SH2+M74) and (Rat-1 SH2+ stearic acid) were imaged.

[2] = Toxicity Study of FP-nanoparticle in C3H mice (hematological parameters, hepatic and renal function); format: in vivo; conditions: tail vein three times every other day
Description: C3H mice were injected with a nanoparticle containing a peptide (either the FUS-1 peptide or a nonspecific peptide), and various toxicological parameters were subsequently analyzed at 1, 2 and 3 weeks after injection. Control mice (“Group IX”) were injected with PBS. The toxicological parameters evaluated included hematological parameters (i.e., red blood cell counts “RBC” and white blood cell counts “WBC”), analysis of hepatic function (i.e., AST, ALT, and total bilirubin analysis) and analysis of renal function (i.e., evaluation of creatinine levels). Either DOTAP:cholesterol nanoparticles or DOPC (neutral liposome) nanoparticles were used. The amount of peptide-containing nanoparticle administered to the C3H mice varied from 2 mg/kg to 5 mg/kg. These studies are summarized below in Table V.

[3] = test system: normal bronchial epithelial CCD16 cells; assay: Cell growth / cytotoxicity in normal cells, XTT assay; format: cell-based, human; conditions: at the IC80 doses to all other NSCLC cells
[4] = Rat-1 cells transformed with activated c-Abl
[5] = 2 mg/kg, 1st week after last treatment
[6] = 2 mg/kg, 2nd week after last treatment
[7] = 2 mg/kg, 3rd week after last treatment
[8] = 5 mg/kg, 1st week after last treatment
[9] = 5 mg/kg, 2nd week after last treatment
[10] = 5 mg/kg, 3rd week after last treatment

Cc1ccc(NC(=O)c2ccc(CN3CCN(C)CC3)cc2)cc1Nc1nccc(-c2cccnc2)n1 [imatinib, imatinib mesylate]
colony-forming ability (H1299 cells; 1-10 uM, dose-dependent, number and size of colonies): strongly inhibited | size of colonies (H1299 cells; 10:M, compared to untreated cells): reduced in size | number of colonies (H1299 cells; 10:M, compared to untreated control): almost complete reduction in the number of colonies

Stearic acid-KLRRVHKNLIPQGIVKLDHR (Stearoyl-KLRRVHKNLIPQGIVKLDHR) [stearate-Fus1 peptide]
inhibition of Abl tyrosine kinase (c-Abl tyrosine kinase): strongly inhibitory | foci formation ([1]; 40 μM): blocked foci formation | foci formation [1, 4]: blocked foci formation

CCCCCCCCCCCCCCCCCC(=O)N[C@@H](CC(=O)O)C(=O)N[C@@H](CC(C)C)C(=O)N[C@H](C(=O)N[C@@H](CCC(=O)O)C(=O)N[C@@H](CCC(=O)O)C(=O)N[C@@H](C)C(=O)N[C@@H](C)C(=O)N[C@@H](CO)C(=O)N[C@@H](CCCNC(=N)N)C(=O)N1CCC[C@H]1C(=O)N[C@H](C(=O)N[C@@H](CC(=O)O)C(=O)N[C@@H](C)C(=O)N[C@H](C(=O)N1CCC[C@H]1C(=O)N[C@@H](CCC(=O)O)C(=O)N[C@@H](CCC(N)=O)C(=O)N[C@H](C(=O)N[C@@H](CCCCN)C(=O)N[C@@H](C)C(=O)N[C@@H](C)C(=O)NCC(=O)N[C@@H](C)C(=O)N[C@@H](Cc1ccc(O)cc1)C(=O)O)C(C)C)C(C)C)C(C)C)[C@@H](C)CC [NSP] (Stearoyl-DLIEEAASRPVDAVPEQVKAAGAY-OH)
ALT [2, 5]: 76 ± 7.87 U/L | AST [2, 5]: 183 ± 6 U/L | Creatinine [2, 5]: 0.6 ± 0 mg/dL | Total Bilirubin [2, 5]: 2.7 ± 0 mg/dL | ALT [2, 6]: 61.67 ± 5.44 U/L | AST [2, 6]: 146 ± 45.31 U/L | Creatinine [2, 6]: 0.5 ± 0.10 mg/dL | RBC [2, 6]: 6.23 ± 0.33 ×10^9 | Total Bilirubin [2, 6]: 1.13 ± 1.09 mg/dL | WBC [2, 6]: 1.93 ± 0.58 ×10^9 | ALT [2, 7]: 58.67 ± 12.55 U/L | AST [2, 7]: 94.67 ± 28.59 U/L | Creatinine [2, 7]: 0.38 ± 0.09 mg/dL | RBC [2, 7]: 5.7 ± 1.14 ×10^9 | Total Bilirubin [2, 7]: 0.6 ± 0.42 mg/dL | WBC [2, 7]: 1.93 ± 0.45 ×10^9 | ALT [2, 8]: 91.5 ± 7.5 U/L | AST [2, 8]: 148.5 ± 13.5 U/L | Creatinine [2, 8]: 0.317 ± 0.02 mg/dL | Total Bilirubin [2, 8]: 1.8 ± 1.2 mg/dL | ALT [2, 9]: 54 ± 9.93 U/L | AST [2, 9]: 96.33 ± 20.24 U/L | Creatinine [2, 9]: 0.35 ± 0.02 mg/dL | RBC [2, 9]: 7.47 ± 2.28 ×10^9 | Total Bilirubin [2, 9]: 0.7 ± 0.28 mg/dL | WBC [2, 9]: 1.6 ± 0.24 ×10^9 | ALT [2, 10]: 50 ± 6.16 U/L | AST [2, 10]: 83.67 ± 23.63 U/L | Creatinine [2, 10]: 0.32 ± 0.04 mg/dL | RBC [2, 10]: 6.67 ± 0.69 ×10^9 | Total Bilirubin [2, 10]: 0.43 ± 0.12 mg/dL | WBC [2, 10]: 1.6 ± 0.14 ×10^9

CCCCCCCCCCCCCCCCCC(=O)O [stearic acid]
inhibition of Abl tyrosine kinase (c-Abl tyrosine kinase): no inhibitory effects; also recorded: not inhibitory | inhibition of Abl tyrosine kinase (c-Abl tyrosine kinase; listed as Stearate): not inhibitory | foci formation ([1]; 30:M, Rat-1 SH2 cells): no effect | foci formation [1, 4]: no effects

CCCCCCCCCCCCCCCCCC(=O)N[C@@H](CCCCN)C(=O)N[C@@H](CC(C)C)C(=O)N[C@@H](CCCNC(=N)N)C(=O)N[C@@H](CCCNC(=N)N)C(=O)N[C@H](C(=O)N[C@@H](Cc1c[nH]cn1)C(=O)N[C@@H](CCCCN)C(=O)N[C@@H](CC(N)=O)C(=O)N[C@@H](CC(C)C)C(=O)N[C@H](C(=O)N1CCC[C@H]1C(=O)N[C@@H](CCC(N)=O)C(=O)NCC(=O)N[C@H](C(=O)N[C@H](C(=O)N[C@@H](CCCCN)C(=O)N[C@@H](CC(C)C)C(=O)N[C@@H](CC(=O)O)C(=O)N[C@@H](Cc1c[nH]cn1)C(=O)N1CCC[C@H]1C(=O)N[C@@H](CCCNC(=N)N)C(=O)O)C(C)C)[C@@H](C)CC)[C@@H](C)CC)C(C)C [st-wt-FP] (Stearoyl-KLRRVHKNLIPQGIVKLDHPR-OH)
cytotoxicity in normal cells [3]: No significant cytotoxicity

Non-stearate FUS1 peptide: Fus1 peptide sequence without the stearic acid moiety (KLRRVHKNLIPQGIVKLDHR)
inhibition of Abl tyrosine kinase activity (c-Abl tyrosine kinase; 0-60 uM, 45 kD Abl tyrosine kinase, GST-Crk phosphorylation): did not inhibit | inhibition of Abl tyrosine kinase (c-Abl tyrosine kinase): did not inhibit | inhibition of Abl tyrosine kinase (c-Abl tyrosine kinase; listed as Fus1 peptide lacking the stearate N-terminal moiety): inactive
